Among the test systems are TK-10 renal; OVCAR-8 ovarian; HCC-2998 colon; HT29 colon; EKVX NSCLC; SR leukemia; LOX IMVI melanoma; RPMI-8226 leukemia; CAKI-1 renal; HL-60(TB) leukemia; COLO 205 colon; MDA-MB-435; NCI/ADR-RES ovarian; SW-620 colon; HS 578T breast; U251 CNS; MOLT-4 leukemia; SF-268 CNS; K-562 leukemia; SF-539 CNS.
Common to all, as to assay: NCI anticancer screen, dose series, 48 h

Drawing on PubChem BioAssay (NCI), this text covers TGI for 7 compounds.

The structures appear in SMILES notation.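 Results reflect a 48-hour exposure of cells in 96-well plates to compound at five concentrations. Definition used: TGI = concentration required for complete inhibition of growth.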

On to `CCCN(CCC)CCc1ccc(OC2=CCN(C)CC2)cc1`, for which the TGI in the assay with TK-10 renal was over 100 µM; in the assay with OVCAR-8 ovarian, over 100 µM; in the assay with HCC-2998 colon, over 100 µM; with HT29 colon it was 46.4 µM; in the assay on EKVX NSCLC it was over 100 µM; with SR leukemia, 81.7 µM. The TGI was 89.8 µM in the assay on LOX IMVI melanoma; over 100 µM with RPMI-8226 leukemia; over 100 µM in the assay with CAKI-1 renal; over 100 µM with HL-60(TB) leukemia; over 100 µM in the assay with COLO 205 colon; over 100 µM in the assay on MDA-MB-435. Further, the TGI with NCI/ADR-RES ovarian, in the assay with SW-620 colon, in the assay with HS 578T breast, in the assay with U251 CNS, in the assay on MOLT-4 leukemia and in the assay on SF-268 CNS was over 100 µM in each case. In addition, the TGI in the assay on K-562 leukemia is over 100 µM.
As to `NC(=O)C(=CNC(N)=S)C(N)=O`, the TGI in the assay on OVCAR-8 ovarian, with HCC-2998 colon, in the assay on HT29 colon, in the assay on EKVX NSCLC, in the assay on SR leukemia and in the assay on LOX IMVI melanoma was over 100 µM throughout. In addition, the TGI in the assay on RPMI-8226 leukemia, in the assay with CAKI-1 renal, in the assay on HL-60(TB) leukemia, in the assay on COLO 205 colon, in the assay with MDA-MB-435 and in the assay with NCI/ADR-RES ovarian was over 100 µM each time. In addition, the TGI with SW-620 colon, with HS 578T breast, in the assay with U251 CNS, with SF-539 CNS, in the assay on MOLT-4 leukemia and in the assay on SF-268 CNS was over 100 µM each time. This compound registered a TGI in the assay on K-562 leukemia of over 100 µM.
Regarding `COC1(c2ccc(Cl)cc2)SC=C(C)n2c1noc2=O` (stereo not given), the TGI with HCC-2998 colon, with HT29 colon, with EKVX NSCLC, in the assay with SR leukemia, in the assay with LOX IMVI melanoma and in the assay on RPMI-8226 leukemia was over 100 µM each time. Further, the TGI with CAKI-1 renal was over 100 µM; in the assay on HL-60(TB) leukemia, over 100 µM; in the assay on COLO 205 colon, over 100 µM; with MDA-MB-435, over 100 µM; with NCI/ADR-RES ovarian, 94.9 µM; in the assay with SW-620 colon, over 100 µM. For the same compound, the TGI in the assay with HS 578T breast, with U251 CNS, in the assay on MOLT-4 leukemia, in the assay on SF-268 CNS and in the assay with K-562 leukemia was over 100 µM throughout.
For the compound `COC(=O)NC(Nc1ccccn1)(C(F)(F)F)C(F)(F)F`, the TGI in the assay on TK-10 renal, in the assay on OVCAR-8 ovarian, in the assay with HCC-2998 colon, with HT29 colon, with EKVX NSCLC and in the assay with SR leukemia was over 100 µM in each case. Moreover, the TGI with LOX IMVI melanoma, with RPMI-8226 leukemia, in the assay on CAKI-1 renal, with HL-60(TB) leukemia, in the assay on MDA-MB-435 and in the assay on NCI/ADR-RES ovarian was over 100 µM each time. For the same compound, the TGI in the assay on SW-620 colon, in the assay with HS 578T breast, in the assay with U251 CNS, in the assay on SF-539 CNS, with MOLT-4 leukemia and with SF-268 CNS was over 100 µM each time. In the assay on K-562 leukemia, this compound registered a TGI of over 100 µM.
`C=C1C[C@@H]2CC[C@@]34CC5O[C@H]6C(O[C@H]7CC[C@H](CC(=O)O[C@@H]8[C@@H](C)[C@@H]9O[C@@H]%10C[C@]%11(C[C@@H]%12O[C@]%13(C[C@H](C)[C@@H]%14O[C@@H]%15CC(C(O)CO)O[C@@H]%15C[C@@H]%14O%13)C[C@H](C)[C@@H]%12O%11)O[C@@H]%10C[C@@H]9O[C@H]8CC8O[C@@H](CC[C@@H]1O2)C[C@@H](C)C8(O)CO)O[C@@H]7[C@@H]6O3)[C@H]5O4` (stereo not given in full): the TGI in the assay with TK-10 renal, with OVCAR-8 ovarian, with HCC-2998 colon, in the assay with EKVX NSCLC, with SR leukemia and in the assay on LOX IMVI melanoma was over 1 µM each time. In addition, the TGI in the assay with RPMI-8226 leukemia, with CAKI-1 renal, in the assay on HL-60(TB) leukemia, in the assay on COLO 205 colon, in the assay with MDA-MB-435 and in the assay with NCI/ADR-RES ovarian was over 1 µM throughout. Besides, the TGI in the assay on SW-620 colon is over 1 µM; with HS 578T breast, over 0.815 µM; in the assay on U251 CNS, over 1 µM; in the assay on MOLT-4 leukemia it was over 1 µM; in the assay on SF-268 CNS it was over 1 µM; in the assay with K-562 leukemia, over 1 µM.
Regarding `COc1cccc(-c2nc3ccccc3c(=O)[nH]2)c1`, the TGI is 36.9 µM in the assay with TK-10 renal; over 100 µM in the assay on OVCAR-8 ovarian; 54.3 µM in the assay on HCC-2998 colon; 55.5 µM with HT29 colon; 87.7 µM in the assay with EKVX NSCLC; over 100 µM in the assay on SR leukemia. Moreover, the TGI is over 100 µM in the assay on LOX IMVI melanoma; 37.1 µM in the assay on CAKI-1 renal; over 100 µM in the assay on HL-60(TB) leukemia; over 100 µM in the assay on COLO 205 colon; 28.1 µM in the assay with MDA-MB-435; 51.8 µM with NCI/ADR-RES ovarian. For the same compound, the TGI was over 100 µM in the assay with SW-620 colon; 47.9 µM in the assay with HS 578T breast; 44.7 µM with U251 CNS; 50.3 µM with SF-539 CNS; over 100 µM with MOLT-4 leukemia; 44.8 µM in the assay on SF-268 CNS. For the same compound, in the assay with K-562 leukemia, the TGI was over 100 µM.
Take `Nc1ccccc1-c1noc(=O)[nH]1`: the TGI in the assay with TK-10 renal, in the assay with OVCAR-8 ovarian, in the assay on HCC-2998 colon, with HT29 colon, with EKVX NSCLC and in the assay with SR leukemia was over 100 µM each time. Moreover, the TGI in the assay with LOX IMVI melanoma, in the assay on RPMI-8226 leukemia, in the assay with CAKI-1 renal, with COLO 205 colon, in the assay with MDA-MB-435 and in the assay with NCI/ADR-RES ovarian was over 100 µM each time. For the same compound, the TGI with SW-620 colon, in the assay with HS 578T breast, in the assay on U251 CNS, in the assay on SF-539 CNS, in the assay with MOLT-4 leukemia and in the assay on SF-268 CNS was over 100 µM in each case. In addition, in the assay on K-562 leukemia, the TGI is over 100 µM.
